Measured values: PubChem BioAssay (NCI)
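Interpolation was linear, between the two tested concentrations surrounding the appropriate level; five concentrations were tested over 48 hours in 96-well plates. TGI is the concentration that stops growth completely.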 Where a SMILES comes first, the peptide text is derived from it. The star is where a group is joined. Bn = c1ccc(C*)cc1

What was measured:
Assay in all cases: NCI-60 cell line screen, 48 h
SR leukemia = test system: SR leukemia
COLO 205 colon = test system: COLO 205 colon
UO-31 renal = test system: UO-31 renal
PC-3 prostate = test system: PC-3 prostate
HT29 colon = test system: HT29 colon
OVCAR-5 ovarian = test system: OVCAR-5 ovarian
SN12C renal = test system: SN12C renal
SF-268 CNS = test system: SF-268 CNS
NCI-H226 lung = test system: NCI-H226 lung
ACHN renal = test system: ACHN renal

## O=C1CC(Sc2nc3ccc(I)cc3c(=O)n2Cc2ccccc2)C(=O)NN1 (stereo not given)
SR leukemia
  TGI: 24 µM
COLO 205 colon
  TGI: 34.5 µM
UO-31 renal
  TGI: 1.97 µM
PC-3 prostate
  TGI: 30.7 µM
HT29 colon
  TGI: 38.6 µM
OVCAR-5 ovarian
  TGI: 41.4 µM
SN12C renal
  TGI: 27.6 µM
SF-268 CNS
  TGI: 30.1 µM
NCI-H226 lung
  TGI: 25.2 µM
ACHN renal
  TGI: 30.2 µM

## CCc1nc2cc3cccnc3c(Cl)c2[nH]c1=O
SR leukemia
  TGI: > 100 µM
COLO 205 colon
  TGI: > 100 µM
UO-31 renal
  TGI: > 100 µM
PC-3 prostate
  TGI: > 100 µM
HT29 colon
  TGI: > 100 µM
OVCAR-5 ovarian
  TGI: > 100 µM
SN12C renal
  TGI: > 100 µM
SF-268 CNS
  TGI: > 100 µM
NCI-H226 lung
  TGI: > 100 µM
ACHN renal
  TGI: > 100 µM

## COc1ccc(N=C2C(=S)N(c3ccc(OC)cc3)/C(=N/S(=O)(=O)c3ccccc3)N2c2ccccc2)cc1
SR leukemia
  TGI: > 66.4 µM
COLO 205 colon
  TGI: 24.8 µM
UO-31 renal
  TGI: 13.4 µM
PC-3 prostate
  TGI: 11.1 µM
HT29 colon
  TGI: > 64.4 µM
OVCAR-5 ovarian
  TGI: 32 µM
SN12C renal
  TGI: 32.4 µM
SF-268 CNS
  TGI: 29.2 µM
NCI-H226 lung
  TGI: 38.7 µM
ACHN renal
  TGI: 21.7 µM

## c1ccc(C2=Nn3c(CCCCCCCCc4nnc5n4N=C(c4ccccc4)CS5)nnc3SC2)cc1
SR leukemia
  TGI: > 100 µM
COLO 205 colon
  TGI: > 100 µM
UO-31 renal
  TGI: > 100 µM
PC-3 prostate
  TGI: > 100 µM
HT29 colon
  TGI: > 50.6 µM
OVCAR-5 ovarian
  TGI: > 100 µM
SN12C renal
  TGI: > 100 µM
SF-268 CNS
  TGI: > 81.8 µM
NCI-H226 lung
  TGI: > 100 µM
ACHN renal
  TGI: > 100 µM

## CC1=C[C@@H](C)C[C@]2(C)CC[C@H](O2)[C@]23CC[C@](C(=O)O)(C[C@H](O2)[C@@H]2O[C@@](C)(CC2=O)[C@@H](O)[C@H]2CC[C@@]4(CCC[C@@H](O4)[C@H](C)C(=O)O[C@H]4C[C@H]([C@]5(O)OCC[C@H](C)[C@@H]5O)O[C@H]4C=C1)O2)O3
SR leukemia
  TGI: > 10 µM
COLO 205 colon
  TGI: > 10 µM
UO-31 renal
  TGI: > 10 µM
PC-3 prostate
  TGI: > 10 µM
HT29 colon
  TGI: > 10 µM
OVCAR-5 ovarian
  TGI: > 10 µM
SN12C renal
  TGI: > 10 µM
SF-268 CNS
  TGI: > 10 µM
NCI-H226 lung
  TGI: > 10 µM
ACHN renal
  TGI: > 10 µM

## COc1cc(OCc2ccc3nc(OC)c(OC)nc3c2)cc(OC)c1OC
SR leukemia
  TGI: > 10 µM
COLO 205 colon
  TGI: > 10 µM
UO-31 renal
  TGI: > 10 µM
PC-3 prostate
  TGI: > 4.95 µM
HT29 colon
  TGI: > 10 µM
OVCAR-5 ovarian
  TGI: > 10 µM
SN12C renal
  TGI: > 10 µM
SF-268 CNS
  TGI: > 10 µM
NCI-H226 lung
  TGI: > 10 µM
ACHN renal
  TGI: > 10 µM

## COc1c(O)c(O)cc2c1-c1ccc(OC)c(=O)cc1C(NC(C)=O)CC2 (stereo not given)
SR leukemia
  TGI: > 100 µM
COLO 205 colon
  TGI: 9.07 µM
UO-31 renal
  TGI: > 100 µM
PC-3 prostate
  TGI: > 100 µM
HT29 colon
  TGI: 16 µM
OVCAR-5 ovarian
  TGI: 80.6 µM
SN12C renal
  TGI: 42.5 µM
SF-268 CNS
  TGI: > 95.2 µM
NCI-H226 lung
  TGI: 70.2 µM
ACHN renal
  TGI: > 96.5 µM

## N#CCCN(CCC#N)c1ccc(/C=C2\SC(=S)NC2=O)cc1Br
SR leukemia
  TGI: > 100 µM
COLO 205 colon
  TGI: > 100 µM
UO-31 renal
  TGI: > 100 µM
PC-3 prostate
  TGI: > 100 µM
HT29 colon
  TGI: > 100 µM
OVCAR-5 ovarian
  TGI: > 100 µM
SN12C renal
  TGI: > 100 µM
SF-268 CNS
  TGI: > 100 µM
NCI-H226 lung
  TGI: > 100 µM
ACHN renal
  TGI: > 100 µM

## N#Cc1c(C#N)c(-c2ccccc2)n(-c2ccccc2)c1N
SR leukemia
  TGI: > 100 µM
COLO 205 colon
  TGI: > 100 µM
UO-31 renal
  TGI: > 100 µM
PC-3 prostate
  TGI: > 100 µM
HT29 colon
  TGI: > 100 µM
OVCAR-5 ovarian
  TGI: > 100 µM
SN12C renal
  TGI: > 100 µM
SF-268 CNS
  TGI: > 100 µM
NCI-H226 lung
  TGI: > 100 µM
ACHN renal
  TGI: > 100 µM

## CC(C)(C)C(=O)C(Cc1ccccc1)C(=O)C(C)(C)C
SR leukemia
  TGI: > 100 µM
COLO 205 colon
  TGI: > 100 µM
UO-31 renal
  TGI: > 100 µM
PC-3 prostate
  TGI: > 100 µM
HT29 colon
  TGI: > 100 µM
OVCAR-5 ovarian
  TGI: > 100 µM
SN12C renal
  TGI: > 100 µM
SF-268 CNS
  TGI: > 100 µM
NCI-H226 lung
  TGI: > 100 µM
ACHN renal
  TGI: > 100 µM

## O=C1CCc2ccc3c(c21)CC1(Cc2ccccc2C1)C3
SR leukemia
  TGI: 78.8 µM
COLO 205 colon
  TGI: > 100 µM
UO-31 renal
  TGI: 34 µM
PC-3 prostate
  TGI: > 100 µM
HT29 colon
  TGI: 22 µM
OVCAR-5 ovarian
  TGI: 44.2 µM
SN12C renal
  TGI: > 100 µM
SF-268 CNS
  TGI: > 100 µM
NCI-H226 lung
  TGI: 67.8 µM
ACHN renal
  TGI: > 100 µM

## COc1cc(CC(C)N)ccc1O (stereo not given)
SR leukemia
  TGI: > 100 µM
COLO 205 colon
  TGI: > 100 µM
UO-31 renal
  TGI: > 100 µM
PC-3 prostate
  TGI: > 100 µM
HT29 colon
  TGI: > 100 µM
OVCAR-5 ovarian
  TGI: > 100 µM
SN12C renal
  TGI: > 100 µM
SF-268 CNS
  TGI: > 100 µM
NCI-H226 lung
  TGI: > 100 µM
ACHN renal
  TGI: > 100 µM

## CCN(CC)CCNc1ccc2ncn3c4cc(OC)c(OC)c(=O)c4c(O)c1c23
SR leukemia
  TGI: 16.2 µM
COLO 205 colon
  TGI: 17.4 µM
UO-31 renal
  TGI: 25.7 µM
PC-3 prostate
  TGI: 21 µM
HT29 colon
  TGI: 19.8 µM
OVCAR-5 ovarian
  TGI: 45.4 µM
SN12C renal
  TGI: 21.5 µM
SF-268 CNS
  TGI: 17.6 µM
NCI-H226 lung
  TGI: 45.6 µM
ACHN renal
  TGI: 20.5 µM

## COC(=O)C(CC(C)C)NC(=O)C(N)Cc1ccc(OCc2ccccc2)cc1 (stereo not given) (H-Tyr(Bn)-Leu-OMe; configuration not given here)
SR leukemia
  TGI: > 10 µM
COLO 205 colon
  TGI: > 10 µM
UO-31 renal
  TGI: > 10 µM
PC-3 prostate
  TGI: > 10 µM
HT29 colon
  TGI: > 10 µM
OVCAR-5 ovarian
  TGI: > 10 µM
SN12C renal
  TGI: > 10 µM
SF-268 CNS
  TGI: > 10 µM
NCI-H226 lung
  TGI: > 10 µM
ACHN renal
  TGI: > 10 µM

## Cc1cn([C@H]2C[C@](C)(CO)N(C)O2)c(=O)[nH]c1=O
SR leukemia
  TGI: > 100 µM
COLO 205 colon
  TGI: > 100 µM
UO-31 renal
  TGI: > 100 µM
PC-3 prostate
  TGI: > 100 µM
HT29 colon
  TGI: > 100 µM
OVCAR-5 ovarian
  TGI: > 100 µM
SN12C renal
  TGI: > 100 µM
SF-268 CNS
  TGI: > 100 µM
NCI-H226 lung
  TGI: > 100 µM
ACHN renal
  TGI: > 100 µM
